Experiment [1] relates to MS patients. To be noted: LDN alone; cited from earlier work.
Experiment [2] relates to MS patients. The experiment can be described thus: Treatment of individual MS patients with the medication (case reports, Patients A, B, C). Format: in vivo, human. Conditions: Patient C; low dose naltrexone 3 mg daily before the medication.
Source text: Diagnosis was confirmed by an MRI of their brain, lumbar puncture, and visual evolved response.

`O=C1CC[C@@]2(O)[C@H]3Cc4ccc(O)c5c4[C@@]2(CCN3CC2CC2)[C@H]1O5` [low dose naltrexone, naltrexone]: the “improvement of physical ability” value with MS patients [1] is reported as “no improvement of physical ability”. In addition, the “improvement under earlier treatment” value with MS patients [2] was “no improvement”.
